Assay results reported in ChEMBL document CHEMBL4507272 (2021).

What was measured:
[1] = target: Rhodopsin kinase GRK7 (Homo sapiens) (UniProt Q8WTQ7); conditions: Compound concentration 1000.0 nM
[2] = target: Macrophage colony-stimulating factor 1 receptor (Homo sapiens) (UniProt P07333); conditions: Compound concentration 1000.0 nM
[3] = target: Wee1-like protein kinase (Homo sapiens) (UniProt P30291); conditions: Compound concentration 1000.0 nM
[4] = target: Cyclin-dependent kinase 4 (Homo sapiens) (UniProt P11802); conditions: Compound concentration 1000.0 nM
Histamine H3 receptor = Histamine H3 receptor (Homo sapiens, UniProt Q9Y5N1); conditions: Compound concentration 10.0 uM
[5] = target: Homeodomain-interacting protein kinase 2 (Homo sapiens) (UniProt Q9H2X6); conditions: Compound concentration 1000.0 nM
[6] = tested on: Hepatocyte growth factor receptor (Homo sapiens), P08581 [Y1235D]; conditions: Compound concentration 1000.0 nM
[7] = target: Histamine H1 receptor (Homo sapiens) (UniProt P35367); conditions: Compound concentration 10.0 uM
[8] = target: 5'-AMP-activated protein kinase catalytic subunit alpha-2 (Homo sapiens) (UniProt P54646); conditions: Compound concentration 1000.0 nM
[9] = target: Calcium/calmodulin-dependent protein kinase type 1 (Homo sapiens) (UniProt Q14012); conditions: Compound concentration 1000.0 nM
[10] = target: Proto-oncogene tyrosine-protein kinase ROS (Homo sapiens) (UniProt P08922); conditions: Compound concentration 1000.0 nM
[11] = target: Maternal embryonic leucine zipper kinase (Homo sapiens) (UniProt Q14680); conditions: Compound concentration 1000.0 nM
[12] = tested on: Mast/stem cell growth factor receptor Kit (Homo sapiens), P10721 [V559D,T670I]; conditions: Compound concentration 1000.0 nM
[13] = target: Serine/threonine-protein kinase SIK2 (Homo sapiens) (UniProt Q9H0K1); conditions: Compound concentration 1000.0 nM
[14] = target: RAF proto-oncogene serine/threonine-protein kinase (Homo sapiens) (UniProt P04049); conditions: Compound concentration 1000.0 nM
Sequence of RAF proto-oncogene serine/threonine-protein kinase (Homo sapiens) (P04049 whole entry): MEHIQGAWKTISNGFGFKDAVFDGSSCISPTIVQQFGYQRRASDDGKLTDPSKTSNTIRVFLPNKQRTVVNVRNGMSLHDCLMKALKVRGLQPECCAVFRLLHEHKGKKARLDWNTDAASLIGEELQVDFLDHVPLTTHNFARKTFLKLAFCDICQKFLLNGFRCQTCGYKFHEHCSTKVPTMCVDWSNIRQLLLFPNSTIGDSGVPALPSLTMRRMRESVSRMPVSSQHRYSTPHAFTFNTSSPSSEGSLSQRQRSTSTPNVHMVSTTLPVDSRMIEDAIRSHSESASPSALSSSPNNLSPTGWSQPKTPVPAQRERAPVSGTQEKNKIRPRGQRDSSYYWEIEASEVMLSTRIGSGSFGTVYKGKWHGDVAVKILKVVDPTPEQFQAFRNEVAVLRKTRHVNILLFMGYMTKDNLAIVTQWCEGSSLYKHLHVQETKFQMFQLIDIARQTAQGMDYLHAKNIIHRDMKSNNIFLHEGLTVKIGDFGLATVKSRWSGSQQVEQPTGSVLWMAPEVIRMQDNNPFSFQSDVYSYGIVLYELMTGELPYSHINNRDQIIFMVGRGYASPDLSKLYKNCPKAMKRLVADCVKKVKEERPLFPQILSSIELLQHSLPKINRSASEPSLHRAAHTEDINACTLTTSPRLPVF

[15] = target: Hormonally up-regulated neu tumor-associated kinase (Homo sapiens) (UniProt P57058); conditions: Compound concentration 1000.0 nM
[16] = tested on: Tyrosine-protein kinase ABL1 (Homo sapiens), P00519 [E255K]; conditions: Compound concentration 1000.0 nM
[17] = target: Phosphatidylinositol 4,5-bisphosphate 3-kinase catalytic subunit alpha isoform (Homo sapiens) (UniProt P42336); conditions: Compound concentration 1000.0 nM
[18] = target: Focal adhesion kinase 1 (Homo sapiens) (UniProt Q05397); conditions: Compound concentration 1000.0 nM
[19] = target: Mitogen-activated protein kinase kinase kinase 15 (Homo sapiens) (UniProt Q6ZN16); conditions: Compound concentration 1000.0 nM
[20] = target: 5-hydroxytryptamine receptor 3A (Homo sapiens) (UniProt P46098); conditions: Compound concentration 10.0 uM
[21] = target: Beta-1 adrenergic receptor (Homo sapiens, UniProt P08588); assay: GPCRScan assay: inhibition of Beta1; set-up: radioligand conc. used [nm] 0.1 – 0.2, parental cells CHO Flp-In
Sequence of Beta-1 adrenergic receptor (P08588 whole entry): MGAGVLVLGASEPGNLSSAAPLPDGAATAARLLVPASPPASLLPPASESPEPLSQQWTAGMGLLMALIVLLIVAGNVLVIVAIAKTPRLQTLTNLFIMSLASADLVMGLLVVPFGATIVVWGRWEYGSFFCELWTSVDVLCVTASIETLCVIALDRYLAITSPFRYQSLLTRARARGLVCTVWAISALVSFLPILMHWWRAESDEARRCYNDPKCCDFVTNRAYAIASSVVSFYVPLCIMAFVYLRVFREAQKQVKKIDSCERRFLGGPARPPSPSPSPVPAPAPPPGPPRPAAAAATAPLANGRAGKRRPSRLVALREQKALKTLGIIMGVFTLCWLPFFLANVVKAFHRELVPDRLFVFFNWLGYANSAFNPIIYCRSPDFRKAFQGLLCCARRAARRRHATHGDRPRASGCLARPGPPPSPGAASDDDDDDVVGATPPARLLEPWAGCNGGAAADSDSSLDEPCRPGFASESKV

[22] = target: Homeodomain-interacting protein kinase 4 (Homo sapiens) (UniProt Q8NE63); conditions: Compound concentration 1000.0 nM
[23] = target: Serine/threonine-protein kinase PAK 4 (Homo sapiens) (UniProt O96013); conditions: Compound concentration 1000.0 nM
Sequence of Serine/threonine-protein kinase PAK 4 (Homo sapiens) (O96013 whole entry, looked up): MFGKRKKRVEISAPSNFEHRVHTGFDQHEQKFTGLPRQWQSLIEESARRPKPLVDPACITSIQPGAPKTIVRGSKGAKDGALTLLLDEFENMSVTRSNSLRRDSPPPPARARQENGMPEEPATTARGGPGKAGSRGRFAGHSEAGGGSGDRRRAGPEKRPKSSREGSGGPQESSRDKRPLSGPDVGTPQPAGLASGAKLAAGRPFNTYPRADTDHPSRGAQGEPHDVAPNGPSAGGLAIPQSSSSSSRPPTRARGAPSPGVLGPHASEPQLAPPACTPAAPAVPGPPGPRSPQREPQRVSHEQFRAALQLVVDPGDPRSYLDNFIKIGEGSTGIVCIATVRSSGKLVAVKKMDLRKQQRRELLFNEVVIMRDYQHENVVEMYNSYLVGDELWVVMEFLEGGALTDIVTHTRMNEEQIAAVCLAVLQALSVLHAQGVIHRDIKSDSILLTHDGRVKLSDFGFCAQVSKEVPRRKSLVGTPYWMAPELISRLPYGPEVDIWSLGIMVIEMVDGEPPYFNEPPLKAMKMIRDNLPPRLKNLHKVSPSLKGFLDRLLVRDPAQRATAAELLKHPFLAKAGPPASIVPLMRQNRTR

[24] = target: Cyclin-dependent kinase 11A (Homo sapiens) (UniProt Q9UQ88); conditions: Compound concentration 1000.0 nM
[25] = target: D(1B) dopamine receptor (Homo sapiens) (UniProt P21918); conditions: Compound concentration 10.0 uM
[26] = target: Tyrosine-protein kinase ABL1 (Homo sapiens) (UniProt P00519); conditions: Compound concentration 1000.0 nM
Sequence of Tyrosine-protein kinase ABL1 (Homo sapiens) (P00519 whole entry): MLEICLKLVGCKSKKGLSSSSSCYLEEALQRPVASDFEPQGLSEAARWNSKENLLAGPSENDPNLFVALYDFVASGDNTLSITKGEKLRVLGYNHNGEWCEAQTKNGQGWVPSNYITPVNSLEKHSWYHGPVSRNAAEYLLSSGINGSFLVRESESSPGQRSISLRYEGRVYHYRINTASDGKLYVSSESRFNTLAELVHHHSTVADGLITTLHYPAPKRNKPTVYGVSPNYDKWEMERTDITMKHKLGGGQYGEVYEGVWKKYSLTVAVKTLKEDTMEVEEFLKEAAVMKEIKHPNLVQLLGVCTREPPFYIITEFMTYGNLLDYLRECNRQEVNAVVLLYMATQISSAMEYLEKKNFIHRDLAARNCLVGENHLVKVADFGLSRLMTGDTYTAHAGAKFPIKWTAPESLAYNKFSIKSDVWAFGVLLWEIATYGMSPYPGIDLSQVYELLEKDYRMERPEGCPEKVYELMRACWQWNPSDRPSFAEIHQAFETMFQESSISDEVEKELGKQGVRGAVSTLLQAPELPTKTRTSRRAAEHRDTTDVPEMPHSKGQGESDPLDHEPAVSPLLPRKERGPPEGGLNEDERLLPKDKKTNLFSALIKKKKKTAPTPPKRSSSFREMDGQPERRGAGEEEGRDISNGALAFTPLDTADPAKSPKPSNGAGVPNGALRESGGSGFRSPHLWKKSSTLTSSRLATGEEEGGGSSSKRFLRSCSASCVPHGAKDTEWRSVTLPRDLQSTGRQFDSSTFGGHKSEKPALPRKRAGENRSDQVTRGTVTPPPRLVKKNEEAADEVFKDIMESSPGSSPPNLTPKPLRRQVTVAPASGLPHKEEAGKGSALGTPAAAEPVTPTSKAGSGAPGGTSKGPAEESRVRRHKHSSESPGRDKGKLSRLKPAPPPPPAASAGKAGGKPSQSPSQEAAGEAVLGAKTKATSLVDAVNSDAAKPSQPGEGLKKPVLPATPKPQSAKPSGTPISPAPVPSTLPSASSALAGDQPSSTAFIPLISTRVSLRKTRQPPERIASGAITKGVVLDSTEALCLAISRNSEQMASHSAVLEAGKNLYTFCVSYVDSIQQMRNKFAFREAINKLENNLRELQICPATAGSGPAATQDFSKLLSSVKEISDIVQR

[27] = target: Serine/threonine-protein kinase NIM1 (Homo sapiens) (UniProt Q8IY84); conditions: Compound concentration 1000.0 nM
[28] = target: Tyrosine-protein kinase ABL1 (Homo sapiens) (UniProt P00519); conditions: Compound concentration 1000.0 nM; remark: listed apart in the source
[29] = tested on: Proto-oncogene tyrosine-protein kinase receptor Ret (Homo sapiens), P07949 [V804L]; conditions: Compound concentration 1000.0 nM
[30] = target: LIM domain kinase 1 (Homo sapiens) (UniProt P53667); conditions: Compound concentration 1000.0 nM
[31] = target: Ephrin type-B receptor 6 (Homo sapiens) (UniProt O15197); conditions: Compound concentration 1000.0 nM
[32] = target: Receptor-interacting serine/threonine-protein kinase 1 (Homo sapiens) (UniProt Q13546); conditions: Compound concentration 1000.0 nM
[33] = target: Tyrosine-protein kinase Lyn (Homo sapiens) (UniProt P07948); conditions: Compound concentration 1000.0 nM
Sequence of Tyrosine-protein kinase Lyn (Homo sapiens) (P07948 2-512 limits assumed): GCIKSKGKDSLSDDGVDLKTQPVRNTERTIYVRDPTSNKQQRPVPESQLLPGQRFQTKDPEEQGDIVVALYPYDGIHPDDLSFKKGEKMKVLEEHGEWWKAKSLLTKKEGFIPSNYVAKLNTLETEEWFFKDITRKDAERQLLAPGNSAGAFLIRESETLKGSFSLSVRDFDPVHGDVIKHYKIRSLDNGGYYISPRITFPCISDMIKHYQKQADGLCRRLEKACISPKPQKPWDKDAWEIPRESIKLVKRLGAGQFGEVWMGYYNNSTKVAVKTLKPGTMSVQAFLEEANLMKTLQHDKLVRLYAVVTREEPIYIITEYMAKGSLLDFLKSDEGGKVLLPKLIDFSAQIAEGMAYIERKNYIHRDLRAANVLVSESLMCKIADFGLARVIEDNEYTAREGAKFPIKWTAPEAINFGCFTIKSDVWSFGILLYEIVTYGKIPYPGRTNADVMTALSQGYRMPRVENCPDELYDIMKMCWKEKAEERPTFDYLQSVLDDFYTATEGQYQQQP

[34] = target: Mitogen-activated protein kinase kinase kinase kinase 5 (Homo sapiens) (UniProt Q9Y4K4); conditions: Compound concentration 1000.0 nM
Sequence of Mitogen-activated protein kinase kinase kinase kinase 5 (Homo sapiens) (Q9Y4K4 whole entry, looked up): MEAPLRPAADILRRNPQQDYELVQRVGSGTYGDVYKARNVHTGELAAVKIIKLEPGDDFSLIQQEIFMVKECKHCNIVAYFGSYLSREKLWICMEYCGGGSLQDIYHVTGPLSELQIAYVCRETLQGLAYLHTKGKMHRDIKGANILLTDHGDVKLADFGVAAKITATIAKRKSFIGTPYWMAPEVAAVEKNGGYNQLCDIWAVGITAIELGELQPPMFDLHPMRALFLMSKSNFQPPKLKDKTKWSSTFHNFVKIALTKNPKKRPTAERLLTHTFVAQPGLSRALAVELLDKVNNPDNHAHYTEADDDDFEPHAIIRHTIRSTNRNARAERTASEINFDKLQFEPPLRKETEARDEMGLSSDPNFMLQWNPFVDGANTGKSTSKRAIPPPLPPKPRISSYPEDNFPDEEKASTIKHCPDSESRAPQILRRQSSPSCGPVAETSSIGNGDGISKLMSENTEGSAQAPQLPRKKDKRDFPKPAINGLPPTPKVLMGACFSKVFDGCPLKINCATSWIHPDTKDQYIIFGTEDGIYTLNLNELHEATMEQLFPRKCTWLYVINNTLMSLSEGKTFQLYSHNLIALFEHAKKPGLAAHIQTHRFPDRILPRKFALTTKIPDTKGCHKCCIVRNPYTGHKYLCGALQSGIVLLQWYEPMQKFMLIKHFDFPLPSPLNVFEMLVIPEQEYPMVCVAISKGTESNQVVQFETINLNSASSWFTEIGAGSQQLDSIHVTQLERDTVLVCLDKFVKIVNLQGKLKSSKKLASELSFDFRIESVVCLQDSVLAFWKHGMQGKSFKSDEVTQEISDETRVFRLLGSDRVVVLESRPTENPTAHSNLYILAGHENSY

[35] = target: 5-hydroxytryptamine receptor 7 (Homo sapiens) (UniProt P34969); conditions: Compound concentration 10.0 uM
[36] = tested on: Phosphatidylinositol 4,5-bisphosphate 3-kinase catalytic subunit alpha isoform (Homo sapiens), P42336 [I800L]; conditions: Compound concentration 1000.0 nM
[37] = target: Serine/threonine-protein kinase 33 (Homo sapiens) (UniProt Q9BYT3); conditions: Compound concentration 1000.0 nM
[38] = target: Mitogen-activated protein kinase kinase kinase kinase 4 (Homo sapiens) (UniProt O95819); conditions: Compound concentration 1000.0 nM
[39] = tested on: eIF-2-alpha kinase GCN2 (Homo sapiens), Q9P2K8 [S808G]; conditions: Compound concentration 1000.0 nM
[40] = target: Mitogen-activated protein kinase kinase kinase 12 (Homo sapiens) (UniProt Q12852); conditions: Compound concentration 1000.0 nM
Sequence of Mitogen-activated protein kinase kinase kinase 12 (Homo sapiens) (Q12852 whole entry): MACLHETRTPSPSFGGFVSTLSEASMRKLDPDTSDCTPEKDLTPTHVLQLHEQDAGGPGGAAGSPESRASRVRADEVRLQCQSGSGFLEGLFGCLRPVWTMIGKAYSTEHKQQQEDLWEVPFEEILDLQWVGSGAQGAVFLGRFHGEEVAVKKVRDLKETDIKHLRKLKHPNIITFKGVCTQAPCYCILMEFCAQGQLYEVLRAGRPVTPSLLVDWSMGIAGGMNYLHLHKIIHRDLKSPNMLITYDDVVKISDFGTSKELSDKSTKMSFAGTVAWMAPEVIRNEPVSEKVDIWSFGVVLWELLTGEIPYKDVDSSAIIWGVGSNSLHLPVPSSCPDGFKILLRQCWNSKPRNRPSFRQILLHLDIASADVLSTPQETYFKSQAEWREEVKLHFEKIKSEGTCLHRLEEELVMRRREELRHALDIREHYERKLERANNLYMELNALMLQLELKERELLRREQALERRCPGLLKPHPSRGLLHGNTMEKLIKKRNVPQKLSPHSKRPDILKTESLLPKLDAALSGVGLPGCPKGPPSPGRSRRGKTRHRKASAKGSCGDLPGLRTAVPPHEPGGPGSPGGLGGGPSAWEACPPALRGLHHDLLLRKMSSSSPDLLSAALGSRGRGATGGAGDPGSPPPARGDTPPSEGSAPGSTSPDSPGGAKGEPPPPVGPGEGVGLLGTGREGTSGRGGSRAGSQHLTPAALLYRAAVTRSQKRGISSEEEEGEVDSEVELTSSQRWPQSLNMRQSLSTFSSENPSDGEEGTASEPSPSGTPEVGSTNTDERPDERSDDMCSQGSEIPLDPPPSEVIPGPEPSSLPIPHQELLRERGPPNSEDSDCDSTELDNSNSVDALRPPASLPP

[41] = target: NUAK family SNF1-like kinase 1 (Homo sapiens) (UniProt O60285); conditions: Compound concentration 1000.0 nM
[42] = target: Tyrosine-protein kinase receptor Tie-1 (Homo sapiens) (UniProt P35590); conditions: Compound concentration 1000.0 nM
[43] = target: Dual specificity mitogen-activated protein kinase kinase 1 (Homo sapiens) (UniProt Q02750); conditions: Compound concentration 1000.0 nM
[44] = target: Citron Rho-interacting kinase (Homo sapiens) (UniProt O14578); conditions: Compound concentration 1000.0 nM

CC(=O)C1=C(C)N(c2cccc(C(F)(F)F)c2)C(=O)N[C@@H]1c1ccc(C#N)nc1 [BAY-678]
5.01 µM: Ki ([21]; read-out: pKi (converted))
inactive: residual activity [1] 100% | residual activity [2] 99.4% | residual activity [3] 100% | residual activity [4] 100% | inhibition (Histamine H3 receptor) 50% | residual activity [5] 94.3% | residual activity [6] 100% | inhibition [7] 34.1% | residual activity [8] 80.4% | residual activity [9] 86.7% | residual activity [10] 100% | residual activity [11] 88.2% | residual activity [12] 96.7% | residual activity [13] 87.8% | residual activity [14] 100% | residual activity [15] 80.1% | residual activity [16] 75% | residual activity [17] 100% | residual activity [18] 100% | residual activity [19] 100% | inhibition [20] -7.63% | residual activity [22] 100% | residual activity [23] 97.9% | residual activity [24] 95.7% | inhibition [25] 0.739% | residual activity [26] 96.5% | residual activity [27] 83.5% | residual activity [28] 83.3% | residual activity [29] 97.4% | residual activity [30] 70.2% | residual activity [31] 85% | residual activity [32] 85.8% | residual activity [33] 100% | residual activity [34] 100% | inhibition [35] 3.93% | residual activity [36] 75.4% | residual activity [37] 91.6% | residual activity [38] 99.3% | residual activity [39] 56.9% | residual activity [40] 86.8% | residual activity [41] 93.2% | residual activity [42] 89.9% | residual activity [43] 93.3% | residual activity [44] 77.6%
5.45 µM: Ki ([21]; read-out: Ki)
